Earlier results as cited in PMC7395068, “The evolution of strategies to minimise the risk of human drug-induced liver injury (DILI) in drug discovery and development” (Archives of Toxicology, 2020).
Read-outs that look alike come from different tables or passages of the source.

Assays:
[1] = test system: HepG2 cells; conditions: In vitro Assay; ref Persson 2013; cited from earlier work
[2] = test system: HepG2 cells, primary human hepatocytes; conditions: cited from earlier work
[3] = cited from earlier work
[4] = test system: PHH spheroids; conditions: In vitro Assay; ref Vorrink 2018; cited from earlier work
[5] = test system: human hepatocytes; conditions: In vitro Assay; ref Xu 2008; cited from earlier work
[6] = test system: HepG2 cells; conditions: In vitro Assay; ref O'Brien 2006; cited from earlier work
[7] = ref Chen 2016; cited from earlier work
[8] = test system: PHH; conditions: In vitro Assay; ref Proctor 2017; cited from earlier work
[9] = test system: hLiMTs; conditions: In vitro Assay; ref Proctor 2017; cited from earlier work
[10] = test system: isolated mouse liver mitochondria; conditions: In vitro Assay; ref Porceddu 2012; cited from earlier work
[11] = test system: rBsep; conditions: cited from earlier work
[12] = test system: THLE-Null and THLE-3A4 cells; conditions: In vitro Assay; ref Gustafsson 2014; cited from earlier work
[13] = test system: THLE or HepG2 cells, isolated mitochondria, BSEP; conditions: In vitro Assay; ref Aleo 2019; cited from earlier work
[14] = test system: primary human hepatocytes, NIH3T3 fibroblasts, BSEP, CYP3A4; conditions: In vitro Assay; ref Schadt 2015; cited from earlier work
[15] = In vitro Assay, ref Garside 2014
[16] = In vitro Assay, ref Dawson 2012

## CCN(CC)Cc1cc(Nc2ccnc3cc(Cl)ccc23)ccc1O [amodiaquine]
[1]
  Cluser analysis: +VE
[2]; [15]
  Cluster 1-6 +VE Assay: +VE
[3]; […]
  In vivo DILI: +VE
[3]; ref Garside 2014
  In vivo DILI: +VE
[3]; ref Gustafsson 2014
  In vivo DILI: +VE
[3]; ref O'Brien 2006
  In vivo DILI: +VE
[3]; ref Persson 2013
  In vivo DILI: +VE
[3]; ref Proctor 2017
  In vivo DILI: +VE
[3]; ref Schadt 2015
  In vivo DILI: +VE
[3]; ref Vorrink 2018
  In vivo DILI: +VE
[3]; ref Williams 2019
  In vivo DILI: +VE
[4]
  hLiMTs ATP <20 x Cmax: +VE (IC20 < 20 × Cmax.tot cut-off)

## COc1ccc(CCN2CCC(Nc3nc4ccccc4n3Cc3ccc(F)cc3)CC2)cc1 [astemizole]
[5]
  Structural based (HCI): -VE
[6]
  Structural based (HCI): -VE
[2]; [15]
  Cluster 1-6 +VE Assay: +VE
[3]; ref Garside 2014
  In vivo DILI: +VE
[3]; ref O'Brien 2006
  In vivo DILI: -VE
[3]; ref Xu 2008
  In vivo DILI: -VE

## [N-]=[N+]=CC(=O)OC[C@H](N)C(=O)O [azaserine]
[5]
  Structural based (HCI): -VE
[2]; [15]
  Cluster 1-6 +VE Assay: +VE

## CC[C@H]1OC(=O)[C@H](C)[C@@H](O[C@H]2C[C@@](C)(OC)[C@@H](O)[C@H](C)O2)[C@H](C)[C@@H](O[C@@H]2O[C@H](C)C[C@H](N(C)C)[C@H]2O)[C@](C)(O)C[C@@H](C)CN(C)[C@H](C)[C@@H](O)[C@]1(C)O [azithromycin]
[5]
  Structural based (HCI): -VE
[2]; [15]
  Cluster 1-6 +VE Assay: +VE
[3]; […]
  In vivo DILI: +VE
[3]; ref Garside 2014
  In vivo DILI: +VE
[3]; ref Xu 2008
  In vivo DILI: -VE
[7]
  DILI +VE (5-8), DILI -VE (-4): +VE
  DILI severity category: vLess-DILI-Concern

## NC(CO)C(=O)NNCc1ccc(O)c(O)c1O (centres unmarked) [benserazide]
[8]
  PHH ATP <100uM: -VE
[2]; [15]
  Cluster 1-6 +VE Assay: -VE
[3]; ref Garside 2014
  In vivo DILI: -VE
[3]; ref Proctor 2017
  In vivo DILI: -VE
[3]; ref Schadt 2015
  In vivo DILI: -VE
[9]
  hLiMTs ATP <100uM: -VE

## CC(=O)Oc1ccc(C(c2ccc(OC(C)=O)cc2)c2ccccn2)cc1 [bisacodyl]
[1]
  Cluser analysis: -VE
  Structural based (HCI): -VE
[10]
  in vitro data EC2<=1x Cmax: -VE
  in vitro data EC20<=2uM: +VE
[6]
  Structural based (HCI): +VE
[2]; [15]
  Cluster 1-6 +VE Assay: +VE
[3]; ref Garside 2014
  In vivo DILI: -VE
[3]; ref O'Brien 2006
  In vivo DILI: -VE
[3]; ref Persson 2013
  In vivo DILI: -VE
[3]; ref Porceddu 2012
  In vivo DILI: -VE
[7]
  DILI +VE (5-8), DILI -VE (-4): -VE
  DILI severity category: vNo-DILI-Concern

## CCCCNc1cc(C(=O)O)cc(S(N)(=O)=O)c1Oc1ccccc1 [bumetanide]
[5]
  Structural based (HCI): +VE
[2]; [15]
  Cluster 1-6 +VE Assay: -VE
[4]
  hLiMTs ATP <20 x Cmax: -VE

## Cn1c(=O)c2c(ncn2C)n(C)c1=O [caffeine]
[10]
  in vitro data EC2<=1x Cmax: +VE
[2]
  Cluster 1-6 +VE Assay: -VE

## O=NN(CCCl)C(=O)NCCCl [carmustine]
[2]
  Cluster 1-6 +VE Assay: +VE
[11]; [16]
  Inhibition of rBsep cutoff<3: -VE
[11]
  Inhibition of rBsep cutoff<1& cmax u>.2: -VE

## O=C(O)c1cc(=O)c2c(OCC(O)COc3cccc4oc(C(=O)O)cc(=O)c34)cccc2o1 [cromolyn]
[5]
  Structural based (HCI): -VE
[2]; [15]
  Cluster 1-6 +VE Assay: -VE
[11]; [16]
  Inhibition of rBsep cutoff<1& cmax u>.2: -VE
  Inhibition of rBsep cutoff<3: -VE

## Nc1ccc(S(=O)(=O)c2ccc(N)cc2)cc1 [dapsone]
[5]
  Structural based (HCI): -VE
[10]
  in vitro data EC2<=1x Cmax: +VE
  in vitro data EC20<=2uM: -VE
[2]; [15]
  Cluster 1-6 +VE Assay: +VE
[11]; [16]
  Inhibition of rBsep cutoff<1& cmax u>.2: -VE
  Inhibition of rBsep cutoff<3: -VE
[3]; […]
  In vivo DILI: +VE
[3]; ref Dawson 2012
  In vivo DILI: +VE
[3]; ref Garside 2014
  In vivo DILI: +VE
[3]; ref Gustafsson 2014
  In vivo DILI: +VE
[3]; ref Khetani 2012
  In vivo DILI: +VE
[3]; ref Porceddu 2012
  In vivo DILI: +VE
[3]; ref Xu 2008
  In vivo DILI: +VE
[7]
  DILI +VE (5-8), DILI -VE (-4): +VE
  DILI severity category: vLess-DILI-Concern

## Cc1nc(Nc2ncc(C(=O)Nc3c(C)cccc3Cl)s2)cc(N2CCN(CCO)CC2)n1 [dasatinib]
[10]
  in vitro data EC2<=1x Cmax: -VE
  in vitro data EC20<=2uM: +VE
[2]; [15]
  Cluster 1-6 +VE Assay: +VE
[3]; ref Garside 2014
  In vivo DILI: +VE
[3]; ref Porceddu 2012
  In vivo DILI: +VE
[7]
  DILI +VE (5-8), DILI -VE (-4): +VE
  DILI severity category: vLess-DILI-Concern

## Cn1c(=O)c2c(ncn2CC(O)CO)n(C)c1=O (centres unmarked) [dyphylline]
[2]; [15]
  Cluster 1-6 +VE Assay: -VE
[3]; ref Garside 2014
  In vivo DILI: -VE
[7]
  DILI +VE (5-8), DILI -VE (-4): -VE
  DILI severity category: vNo-DILI-Concern

## C[C@H](N[C@@H](CCc1ccccc1)C(=O)O)C(=O)N1CCC[C@H]1C(=O)O [enalaprilat]
[2]
  Cluster 1-6 +VE Assay: -VE
[3]; in vivo
  In vivo DILI: +VE
[7]
  DILI +VE (5-8), DILI -VE (-4): -VE
  DILI severity category: Ambiguous DILI-concern

## O=c1[nH]cc(F)c(=O)[nH]1 [fluorouracil]
[2]; [15]
  Cluster 1-6 +VE Assay: +VE
[3]; ref Garside 2014
  In vivo DILI: +VE
[7]
  DILI +VE (5-8), DILI -VE (-4): +VE
  DILI severity category: vLess-DILI-Concern

## CC(=O)O[C@H]1C[C@@]2(C)[C@@H](C[C@@H](O)[C@H]3[C@@]4(C)CC[C@@H](O)[C@@H](C)[C@@H]4CC[C@@]32C)/C1=C(\CCC=C(C)C)C(=O)O [fusidic acid]
[12]
  THLE-Null: +VE
[2]; [15]
  Cluster 1-6 +VE Assay: -VE
[11]; [16]
  Inhibition of rBsep cutoff<1& cmax u>.2: +VE
  Inhibition of rBsep cutoff<3: +VE

## CCN(CC)CCNc1ccc(CO)c2sc3ccccc3c(=O)c12 [hycanthone]
[5]
  Structural based (HCI): +VE
[2]; [15]
  Cluster 1-6 +VE Assay: +VE
[3]; […]
  In vivo DILI: +VE
[3]; ref Garside 2014
  In vivo DILI: +VE
[3]; ref Xu 2008
  In vivo DILI: +VE

## CC[C@@H](C(N)=O)N1CCCC1=O [levetiracetam]
[2]; [15]
  Cluster 1-6 +VE Assay: +VE
[3]; ref Garside 2014
  In vivo DILI: +VE
[7]
  DILI +VE (5-8), DILI -VE (-4): +VE
  DILI severity category: vLess-DILI-Concern

## CCCCc1nc(Cl)c(CO)n1Cc1ccc(-c2ccccc2-c2nn[nH]n2)cc1 [losartan]
[2]; [15]
  Cluster 1-6 +VE Assay: +VE
[13]
  Partition Hybrid HRM Score: +VE
  Ro2 Hybrid HRM Score: +VE
[14]
  Cellular toxicity (3T3 cells): -VE
  Combined Assay: +VE
  GSH adduct HML: +VE
  Hepatocyte cellular toxicity: +VE
  MitoTox 3T3: -VE
  TDI CYP3A4: -VE
  hBSEP inhibition: +VE

## O=C1c2c(O)ccc(O)c2C(=O)c2c(NCCNCCO)ccc(NCCNCCO)c21 [mitoxantrone]
[5]
  Structural based (HCI): +VE
[10]
  in vitro data EC2<=1x Cmax: -VE
[2]; [15]
  Cluster 1-6 +VE Assay: +VE

## CN(CCOc1ccc(CC2SC(=O)NC2=O)cc1)c1ccccn1 (centres unmarked) [rosiglitazone]
[5]
  Structural based (HCI): -VE
[8]
  PHH ATP <100uM: -VE
[6]
  Structural based (HCI): -VE
[2]; [15]
  Cluster 1-6 +VE Assay: +VE
[11]; [16]
  Inhibition of rBsep cutoff<1& cmax u>.2: -VE
  Inhibition of rBsep cutoff<3: +VE
[3]; […]
  In vivo DILI: -VE
[3]; ref Aleo 2019
  In vivo DILI: +VE
[3]; ref Dawson 2012
  In vivo DILI: +VE
[3]; ref Garside 2014
  In vivo DILI: +VE
[3]; ref Gustafsson 2014
  In vivo DILI: +VE
[3]; ref O'Brien 2006
  In vivo DILI: -VE
[3]; ref Proctor 2017
  In vivo DILI: +VE
[3]; ref Schadt 2015
  In vivo DILI: +VE
[3]; ref Vorrink 2018
  In vivo DILI: -VE
[3]; ref Williams 2019
  In vivo DILI: +VE
[3]; ref Xu 2008
  In vivo DILI: -VE
[4]
  hLiMTs ATP <20 x Cmax: -VE
[7]
  DILI +VE (5-8), DILI -VE (-4): +VE
  DILI severity category: vLess-DILI-Concern
[9]
  hLiMTs ATP <100uM: +VE (IC50 threshold of 100 µM)

## CC(C)(C)NCC(O)c1cc(O)cc(O)c1 (centres unmarked) [terbutaline]
[2]; [15]
  Cluster 1-6 +VE Assay: +VE
[3]; ref Garside 2014
  In vivo DILI: +VE
[7]
  DILI +VE (5-8), DILI -VE (-4): +VE
  DILI severity category: vLess-DILI-Concern

## CCCCNC(=O)NS(=O)(=O)c1ccc(C)cc1 [tolbutamide, reference compound]
[6]
  Structural based (HCI): +VE
[2]; [15]
  Cluster 1-6 +VE Assay: +VE
[11]; [16]
  Inhibition of rBsep cutoff<1& cmax u>.2: -VE
  Inhibition of rBsep cutoff<3: -VE
